Measurements from ChEMBL document CHEMBL3885861, “Open TG-GATES”.

Species on record: Rattus norvegicus
Assay: Open TG-GATES - Regimen: Daily Repeat
Format: toxicity, organism-based, Sprague-Dawley
Set-up: regimen Daily Repeat, gender Male, age 6 weeks
Conditions: in vivo, po, route gavage; for APTT / Bas / Eos / Fbg / Hb / Ht / Lym / MCH / MCHC / MCV / Mono / Neu / PT / Plat / RBC / Ret / WBC: tissue Blood; for ALP / ALT / AST / BUN / CRE / DBIL / GLC / IP / K / Na / PL / RALB / TBIL / TC / TG / TP / gamma-GTP: tissue Plasma
[1] = 100 mg/kg, 72 h, dose level Middle, time 3 day
[2] = 100 mg/kg, […], dose level Middle, time 7 day
[3] = 100 mg/kg, […], dose level Middle, time 14 day
[4] = 100 mg/kg, […], dose level Middle, time 28 day
[5] = 300 mg/kg, 72 h, dose level High, time 3 day
[6] = 300 mg/kg, […], dose level High, time 7 day
[7] = 300 mg/kg, […], dose level High, time 14 day
[8] = 300 mg/kg, […], dose level High, time 28 day

NS(=O)(=O)c1cc(C(=O)O)c(NCc2ccco2)cc1Cl [FUROSEMIDE]
TERMINAL_BW [1]: 230.7 g | APTT [1]: 16.9 s | Bas [1]: 0% | Eos [1]: 0.8% | Fbg [1]: 296.8 mg/dL | Hb [1]: 13.1 g/dL | Ht [1]: 38.3% | Lym [1]: 81.2% | MCH [1]: 21.4 pg | MCHC [1]: 34.1% | MCV [1]: 62.7 fL | Mono [1]: 2.2% | Neu [1]: 14.8% | PT [1]: 15 s | Plat [1]: 123 x10_4/uL | RBC [1]: 611.2 x10_4/ul | Ret [1]: 4.2% | WBC [1]: 107.2 x10_2/uL | ALP [1]: 1617.4 IU/L | ALT [1]: 47.4 IU/L | AST [1]: 68.8 IU/L | BUN [1]: 22.8 mg/dL | CRE [1]: 0.2 mg/dL | DBIL [1]: 0.014 mg/dL | GLC [1]: 176.6 mg/dL | IP [1]: 6.3 mg/dL | K [1]: 3.6 meq/L | Na [1]: 141.4 meq/L | PL [1]: 174 mg/dL | RALB [1]: 2.6 g/dL | TBIL [1]: 0.054 mg/dL | TC [1]: 90 mg/dL | TG [1]: 65 mg/dL | TP [1]: 5.6 g/dL | gamma-GTP [1]: 0.4 IU/L | TERMINAL_BW [2]: 247.4 g | TERMINAL_BW [3]: 311 g | TERMINAL_BW [4]: 380.8 g | APTT [2]: 17.5 s | Bas [2]: 0.4% | Eos [2]: 1.2% | Fbg [2]: 278 mg/dL | Hb [2]: 14.1 g/dL | Ht [2]: 40.4% | Lym [2]: 82% | MCH [2]: 20.8 pg | MCHC [2]: 34.9% | MCV [2]: 59.7 fL | Mono [2]: 1.8% | Neu [2]: 13.8% | PT [2]: 16 s | Plat [2]: 114.3 x10_4/uL | RBC [2]: 678.6 x10_4/ul | Ret [2]: 4.3% | WBC [2]: 110.3 x10_2/uL | APTT [3]: 16.7 s | Bas [3]: 0.6% | Eos [3]: 1% | Fbg [3]: 253.8 mg/dL | Hb [3]: 14.7 g/dL | Ht [3]: 42.1% | Lym [3]: 82.2% | MCH [3]: 20.5 pg | MCHC [3]: 34.9% | MCV [3]: 58.6 fL | Mono [3]: 2% | Neu [3]: 13.2% | PT [3]: 15.7 s | Plat [3]: 108.7 x10_4/uL | RBC [3]: 717.4 x10_4/ul | Ret [3]: 3.8% | WBC [3]: 124.3 x10_2/uL | APTT [4]: 17.5 s | Bas [4]: 1% | Eos [4]: 1% | Fbg [4]: 251.8 mg/dL | Hb [4]: 14.7 g/dL | Ht [4]: 42.7% | Lym [4]: 80% | MCH [4]: 19.2 pg | MCHC [4]: 34.5% | MCV [4]: 55.6 fL | Mono [4]: 1.6% | Neu [4]: 16.2% | PT [4]: 15.7 s | Plat [4]: 98.3 x10_4/uL | RBC [4]: 769.2 x10_4/ul | Ret [4]: 2.5% | WBC [4]: 125.7 x10_2/uL | ALP [2]: 1748.4 IU/L | ALT [2]: 43.8 IU/L | AST [2]: 73.4 IU/L | BUN [2]: 17.8 mg/dL | CRE [2]: 0.2 mg/dL | DBIL [2]: 0.012 mg/dL | GLC [2]: 179 mg/dL | IP [2]: 6.2 mg/dL | K [2]: 3.8 meq/L | Na [2]: 142.4 meq/L | PL [2]: 152 mg/dL | RALB [2]: 2.6 g/dL | TBIL [2]: 0.044 mg/dL | TC [2]: 71.4 mg/dL | TG [2]: 84.4 mg/dL | TP [2]: 5.7 g/dL | gamma-GTP [2]: 0.2 IU/L | ALP [3]: 1743.4 IU/L | ALT [3]: 44.2 IU/L | AST [3]: 78.6 IU/L | BUN [3]: 24.6 mg/dL | CRE [3]: 0.2 mg/dL | DBIL [3]: 0.016 mg/dL | GLC [3]: 177 mg/dL | IP [3]: 6.5 mg/dL | K [3]: 3.7 meq/L | Na [3]: 143.8 meq/L | PL [3]: 160.6 mg/dL | RALB [3]: 2.6 g/dL | TBIL [3]: 0.048 mg/dL | TC [3]: 78.4 mg/dL | TG [3]: 107.6 mg/dL | TP [3]: 5.7 g/dL | gamma-GTP [3]: 0.6 IU/L | ALP [4]: 1073.6 IU/L | ALT [4]: 42.8 IU/L | AST [4]: 70.4 IU/L | BUN [4]: 24 mg/dL | CRE [4]: 0.2 mg/dL | DBIL [4]: 0.02 mg/dL | GLC [4]: 178.2 mg/dL | IP [4]: 5.7 mg/dL | K [4]: 3.7 meq/L | Na [4]: 144.8 meq/L | PL [4]: 143.4 mg/dL | RALB [4]: 2.6 g/dL | TBIL [4]: 0.052 mg/dL | TC [4]: 66 mg/dL | TG [4]: 109.2 mg/dL | TP [4]: 6 g/dL | gamma-GTP [4]: 0.4 IU/L | TERMINAL_BW [5]: 189.1 g | APTT [5]: 20.9 s | Bas [5]: 0.4% | Eos [5]: 0.8% | Fbg [5]: 315.2 mg/dL | Hb [5]: 16.5 g/dL | Ht [5]: 47% | Lym [5]: 80% | MCH [5]: 20.8 pg | MCHC [5]: 35.1% | MCV [5]: 59.3 fL | Mono [5]: 2.6% | Neu [5]: 15.8% | PT [5]: 15.6 s | Plat [5]: 124.2 x10_4/uL | RBC [5]: 794 x10_4/ul | Ret [5]: 2% | WBC [5]: 116.4 x10_2/uL | ALP [5]: 1596.8 IU/L | ALT [5]: 46.2 IU/L | AST [5]: 67.4 IU/L | BUN [5]: 41.8 mg/dL | CRE [5]: 0.2 mg/dL | DBIL [5]: 0.02 mg/dL | GLC [5]: 164.6 mg/dL | IP [5]: 5.7 mg/dL | K [5]: 3 meq/L | Na [5]: 136.4 meq/L | PL [5]: 169.6 mg/dL | RALB [5]: 2.9 g/dL | TBIL [5]: 0.082 mg/dL | TC [5]: 90.2 mg/dL | TG [5]: 48.4 mg/dL | TP [5]: 6.2 g/dL | gamma-GTP [5]: 1.2 IU/L | TERMINAL_BW [6]: 216.8 g | TERMINAL_BW [7]: 243.1 g | TERMINAL_BW [8]: 317.2 g | APTT [6]: 16.2 s | Bas [6]: 0.4% | Eos [6]: 1% | Fbg [6]: 291 mg/dL | Hb [6]: 15 g/dL | Ht [6]: 42.7% | Lym [6]: 81.6% | MCH [6]: 20.8 pg | MCHC [6]: 35.2% | MCV [6]: 59.3 fL | Mono [6]: 2.2% | Neu [6]: 14.4% | PT [6]: 16.2 s | Plat [6]: 97.2 x10_4/uL | RBC [6]: 720.2 x10_4/ul | Ret [6]: 2.4% | WBC [6]: 121.9 x10_2/uL | APTT [7]: 17 s | Bas [7]: 0.5% | Eos [7]: 1% | Fbg [7]: 309.5 mg/dL | Hb [7]: 15.3 g/dL | Ht [7]: 43.5% | Lym [7]: 80% | MCH [7]: 19.9 pg | MCHC [7]: 35.2% | MCV [7]: 56.5 fL | Mono [7]: 2% | Neu [7]: 15.5% | PT [7]: 15.9 s | Plat [7]: 102.8 x10_4/uL | RBC [7]: 769.5 x10_4/ul | Ret [7]: 3.6% | WBC [7]: 113 x10_2/uL | APTT [8]: 16 s | Bas [8]: 1% | Eos [8]: 1.2% | Fbg [8]: 265.8 mg/dL | Hb [8]: 15.6 g/dL | Ht [8]: 45.6% | Lym [8]: 80.8% | MCH [8]: 19.3 pg | MCHC [8]: 34.3% | MCV [8]: 56.5 fL | Mono [8]: 2% | Neu [8]: 15.2% | PT [8]: 16 s | Plat [8]: 91 x10_4/uL | RBC [8]: 806.5 x10_4/ul | Ret [8]: 2% | WBC [8]: 106.7 x10_2/uL | ALP [6]: 1629.6 IU/L | ALT [6]: 50.2 IU/L | AST [6]: 71 IU/L | BUN [6]: 27 mg/dL | CRE [6]: 0.2 mg/dL | DBIL [6]: 0.018 mg/dL | GLC [6]: 169.8 mg/dL | IP [6]: 4.9 mg/dL | K [6]: 3.5 meq/L | Na [6]: 141.8 meq/L | PL [6]: 164.8 mg/dL | RALB [6]: 2.7 g/dL | TBIL [6]: 0.062 mg/dL | TC [6]: 80.6 mg/dL | TG [6]: 67 mg/dL | TP [6]: 5.9 g/dL | gamma-GTP [6]: 0.4 IU/L | ALP [7]: 1713 IU/L | ALT [7]: 48.2 IU/L | AST [7]: 79 IU/L | BUN [7]: 28.8 mg/dL | CRE [7]: 0.2 mg/dL | DBIL [7]: 0.0175 mg/dL | GLC [7]: 174 mg/dL | IP [7]: 5.5 mg/dL | K [7]: 3.4 meq/L | Na [7]: 142.8 meq/L | PL [7]: 171.8 mg/dL | RALB [7]: 2.7 g/dL | TBIL [7]: 0.0575 mg/dL | TC [7]: 83 mg/dL | TG [7]: 84.2 mg/dL | TP [7]: 5.9 g/dL | gamma-GTP [7]: 0.5 IU/L | ALP [8]: 1444.8 IU/L | ALT [8]: 44.2 IU/L | AST [8]: 72.2 IU/L | BUN [8]: 30.8 mg/dL | CRE [8]: 0.2 mg/dL | DBIL [8]: 0.0175 mg/dL | GLC [8]: 174.8 mg/dL | IP [8]: 5.1 mg/dL | K [8]: 3.5 meq/L | Na [8]: 144.5 meq/L | PL [8]: 150.2 mg/dL | RALB [8]: 2.7 g/dL | TBIL [8]: 0.055 mg/dL | TC [8]: 69.8 mg/dL | TG [8]: 92.2 mg/dL | TP [8]: 6 g/dL | gamma-GTP [8]: 0.5 IU/L
